Source: PubChem BioAssay (NCI)
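These data come from cells grown in 96-well plates and exposed to compound for 48 hours at five concentrations. GI50: concentration for 50% inhibition of growth. TGI is the concentration that stops growth completely.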

How the values were obtained:
Test in all cases: growth of human tumour cells (NCI), 48 h
COLO 205 colon = test system: COLO 205 colon
HOP-62 NSCLC = test system: HOP-62 NSCLC
IGROV1 ovarian = test system: IGROV1 ovarian
MOLT-4 leukemia = test system: MOLT-4 leukemia
NCI-H226 lung = test system: NCI-H226 lung
NCI-H460 lung = test system: NCI-H460 lung
RPMI-8226 leukemia = test system: RPMI-8226 leukemia
SK-MEL-28 melanoma = test system: SK-MEL-28 melanoma
A498 renal = test system: A498 renal
OVCAR-4 ovarian = test system: OVCAR-4 ovarian

SMILES	TGI (COLO 205 colon)	TGI (HOP-62 NSCLC)	TGI (IGROV1 ovarian)	TGI (MOLT-4 leukemia)	TGI (NCI-H226 lung)	TGI (NCI-H460 lung)	TGI (RPMI-8226 leukemia)	TGI (SK-MEL-28 melanoma)	TGI (A498 renal)	TGI (OVCAR-4 ovarian)	GI50 (A498 renal)	GI50 (COLO 205 colon)	GI50 (HOP-62 NSCLC)	GI50 (IGROV1 ovarian)	GI50 (MOLT-4 leukemia)	GI50 (NCI-H460 lung)	GI50 (OVCAR-4 ovarian)	GI50 (RPMI-8226 leukemia)	GI50 (SK-MEL-28 melanoma)	GI50 (NCI-H226 lung)
COC(=O)/C1=C/C2CC(/C=C(/c3ccccc3)C(=O)O1)C2	41.7 µM	95 µM	> 100 µM	62 µM	44.7 µM	> 100 µM	64.7 µM	66.4 µM												
CC[O+]=c1cccc2ssnc1-2	> 100 µM	> 100 µM	> 100 µM	> 100 µM	> 100 µM	> 100 µM		> 100 µM	> 100 µM	> 100 µM										
C=CC1(C)/C(=N\O)C(C)(CC)C(=O)N1O (centres undefined)	> 100 µM	> 100 µM	> 100 µM	> 100 µM		> 100 µM		> 100 µM	> 100 µM	> 100 µM										
CCC(=O)[O-].CCC(=O)[O-].N.N.N.N.[Co+3].[O-][Cl+3]([O-])([O-])[O-]	> 100 µM	> 100 µM	> 100 µM	> 100 µM		> 100 µM	> 100 µM	> 100 µM	> 100 µM	> 100 µM	> 100 µM	> 100 µM	> 100 µM	> 100 µM	> 100 µM	> 100 µM	> 100 µM	> 100 µM	> 100 µM	
CN1C(=O)NC2(O)c3ccccc3C(=O)C12O (centres undefined)	> 100 µM		> 100 µM	> 100 µM		> 100 µM	> 100 µM	> 100 µM		> 100 µM										
COc1ncnc2c1ncn2C/C(Br)=C(\Br)CCl	3.18 µM	14.1 µM	4.86 µM	25.4 µM	9.38 µM		16.4 µM	8.62 µM		3.02 µM		1.73 µM	3.9 µM	1.77 µM	2.91 µM		1.61 µM	3.19 µM	2.62 µM	2.82 µM
CCCCn1c(=O)c(/C=C/C(=O)/C=C/c2ccc(O)c(OC)c2)cc2ccc(Cl)cc21	4.83 µM	4.17 µM	4.1 µM	16.3 µM	4.23 µM	4.17 µM	7.62 µM	4.12 µM		9.81 µM		1.72 µM	1.81 µM	1.92 µM	2.17 µM	1.96 µM	2.34 µM	2.46 µM	1.93 µM	1.77 µM
Cc1occc1C(=S)Nc1ccc(Cl)c(C(=O)OCC2CC2)c1	> 100 µM		> 100 µM	> 100 µM	> 100 µM	> 100 µM	85.5 µM	> 100 µM	> 100 µM	> 100 µM										
O=C(/C=C/c1ccccc1)c1ccc(O)c(CN2CCN(c3cc4c(cc3F)c(=O)c(C(=O)O)cn4C3CC3)CC2)c1	74.5 µM	> 100 µM	36.6 µM		> 100 µM	> 100 µM	6.37 µM	> 100 µM	4.93 µM	> 100 µM	0.941 µM	3.86 µM	3.22 µM	1.36 µM		3.85 µM	16.7 µM	0.275 µM	2.13 µM	3.54 µM
COc1cc([N+](=O)[O-])c(S(=O)(=O)O)cc1-n1nc(-c2ccccc2)n[n+]1-c1cc(S(=O)(=O)[O-])c([N+](=O)[O-])cc1OC	> 100 µM	> 100 µM	> 100 µM	> 100 µM	> 100 µM	> 100 µM	> 100 µM	> 100 µM		> 100 µM										
CCc1nc2cc(/C=C/C(=O)NO)c(F)cc2c(=O)n1CCc1ccccc1	3.14 µM	5.98 µM		> 100 µM	5.98 µM	3.4 µM	44.8 µM	6.97 µM	3.39 µM	17.8 µM	1.02 µM	0.497 µM	1.05 µM		1.03 µM	0.349 µM	0.689 µM	0.654 µM	1.37 µM	1.25 µM
COC(=O)c1c(C(=O)OC)c(C(=O)OC)c(C(=O)OC)c1C(=O)OC	> 100 µM	> 100 µM	> 100 µM	> 100 µM		> 100 µM	> 100 µM	> 100 µM		> 100 µM										
COc1cccc2c1C(=O)c1c(O)c3c(c(O)c1C2=O)C[C@@](O)(C(=O)COC(=O)c1cccnc1)C[C@@H]3OC1CC(N)C(O)C(C)O1 (some centres undefined)	1.01 µM	1.28 µM	3.79 µM	0.684 µM		0.215 µM	0.714 µM	0.689 µM	0.334 µM	3.48 µM	0.113 µM	0.168 µM	0.124 µM	0.121 µM	0.0369 µM	0.0269 µM	0.28 µM	0.114 µM	0.203 µM	
S=C1SC2(CCCCCC2)NC2=C1CCCCC2	35.8 µM	> 100 µM	> 100 µM	66.8 µM	52.4 µM	77.9 µM	69.3 µM	> 100 µM		> 100 µM										
Cc1ccc(S(=O)(=O)NC(C)C(=O)O)cc1 (centres undefined)	> 100 µM		> 100 µM	> 100 µM	> 100 µM	> 100 µM	> 100 µM	> 100 µM	> 100 µM	> 100 µM										
CC(=O)c1ccc(NCn2nc(-c3ccccc3O)oc2=S)cc1	> 100 µM	> 100 µM	> 100 µM	> 100 µM	99.3 µM	> 100 µM		> 100 µM				43.4 µM	> 100 µM	> 100 µM	0.88 µM	39.5 µM			> 100 µM	27.4 µM
c1ccc(CN2CCC3(CC2)ONC2=NCCN23)cc1	> 100 µM	> 100 µM	> 100 µM	> 100 µM	> 100 µM	> 100 µM		> 100 µM	> 100 µM	> 100 µM	> 100 µM	50.4 µM	> 100 µM	35.8 µM	47.3 µM	86.5 µM	> 100 µM		> 100 µM	86.8 µM
